Source: article PMC3997074, “Pharmacokinetic and Biodistribution Assessment of a Near Infrared-Labeled PSMA-Specific Small Molecule in Tumor-Bearing Mice” (Prostate Cancer, 2014)

Legend:
[1] = target: T1, prostate-specific membrane antigen (PSMA) (Homo sapiens, UniProt Q04609); assay: NIR fluorescence saturation binding to PSMA-positive […]1 cells (PSMA-negative PC3 M-LN4 control; LNCaP apparent Kd […]); format: cell-based
T1 construct: gene FOLH1

[2] = target: T1, prostate-specific membrane antigen (PSMA); assay: competition of YC-27 […]CW binding to LNCaP cells; format: cell-based

T1 sequence (Q04609 whole entry): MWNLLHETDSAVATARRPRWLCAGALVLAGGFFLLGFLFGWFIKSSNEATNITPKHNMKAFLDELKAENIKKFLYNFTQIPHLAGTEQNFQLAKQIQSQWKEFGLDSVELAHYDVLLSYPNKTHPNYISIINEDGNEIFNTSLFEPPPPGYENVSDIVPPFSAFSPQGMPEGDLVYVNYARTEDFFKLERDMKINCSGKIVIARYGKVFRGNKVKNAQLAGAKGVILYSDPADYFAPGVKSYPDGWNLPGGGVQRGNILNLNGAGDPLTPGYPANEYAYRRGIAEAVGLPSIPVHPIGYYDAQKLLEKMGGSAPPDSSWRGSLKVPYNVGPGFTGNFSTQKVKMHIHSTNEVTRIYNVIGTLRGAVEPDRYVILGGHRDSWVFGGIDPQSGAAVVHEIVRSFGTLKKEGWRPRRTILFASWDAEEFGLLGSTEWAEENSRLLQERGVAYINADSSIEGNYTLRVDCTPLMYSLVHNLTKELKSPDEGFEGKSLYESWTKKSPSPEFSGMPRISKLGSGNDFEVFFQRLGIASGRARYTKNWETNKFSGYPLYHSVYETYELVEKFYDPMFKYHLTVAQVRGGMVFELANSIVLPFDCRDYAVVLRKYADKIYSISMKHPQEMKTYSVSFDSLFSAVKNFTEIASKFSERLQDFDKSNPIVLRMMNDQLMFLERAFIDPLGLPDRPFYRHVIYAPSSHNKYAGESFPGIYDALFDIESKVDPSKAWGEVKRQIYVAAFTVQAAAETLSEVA

YC-27 800CW
Kd [1]: 0.008 µM

unlabeled YC-27
IC50 [2]: 1.7 µM
